According to PubChem BioAssay (NCI):
Where “and” joins values, the source holds several entries; their conditions need not be identical. Equal values may be shown once.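 Briefly, cells in 96-well plates were exposed to five compound concentrations for 48 h, and endpoints were estimated by linear interpolation. Here, GI50 denotes the concentration required for 50% inhibition of growth. TGI is the concentration that stops growth completely.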

Legend:
Experiment in all cases: NCI-60 cell line screen, 48 h
SK-MEL-2 melanoma = tested on: SK-MEL-2 melanoma
OVCAR-4 ovarian = tested on: OVCAR-4 ovarian
T-47D breast = tested on: T-47D breast
LOX IMVI melanoma = tested on: LOX IMVI melanoma
NCI-H226 lung = tested on: NCI-H226 lung
COLO 205 colon = tested on: COLO 205 colon
PC-3 prostate = tested on: PC-3 prostate
NCI-H522 lung = tested on: NCI-H522 lung
BT-549 breast = tested on: BT-549 breast
SF-268 CNS = tested on: SF-268 CNS

Row | Compound | GI50 (SK-MEL-2 melanoma) | TGI (SK-MEL-2 melanoma) | GI50 (OVCAR-4 ovarian) | TGI (OVCAR-4 ovarian) | GI50 (T-47D breast) | TGI (T-47D breast) | GI50 (LOX IMVI melanoma) | TGI (LOX IMVI melanoma) | GI50 (NCI-H226 lung) | TGI (NCI-H226 lung) | GI50 (COLO 205 colon) | TGI (COLO 205 colon) | GI50 (PC-3 prostate) | TGI (PC-3 prostate) | GI50 (NCI-H522 lung) | TGI (NCI-H522 lung) | GI50 (BT-549 breast) | TGI (BT-549 breast) | GI50 (SF-268 CNS) | TGI (SF-268 CNS)
1 | Cc1cnc(-c2ccc(-c3ccc(NC(=O)Nc4c(F)cc(F)cc4F)cc3F)c3c2C(=O)NC3)[nH]1 | 1.57 µM and 3.75 µM | 14.3 µM and 21.6 µM | 1.44 µM | 3.2 µM | 2.98 µM and 12.6 µM | 20.5 µM and 47.5 µM | 0.0973 µM and 0.386 µM | 4.22 µM and 14.5 µM | 4.2 µM and 6.26 µM | 39.9 µM and 36.5 µM | < 0.01 µM | 13.2 µM and 27.3 µM | 1.41 µM and 2.57 µM | 3.82 µM and 30.1 µM | 1.12 µM and 1.2 µM | 3.69 µM and 3.95 µM | 1.19 µM and 1.69 µM | 19.2 µM and 16.1 µM | 1.17 µM and 3.25 µM | 20.6 µM and 22.9 µM
2 | C=CC(=O)N1CCC[C@@H](n2nc(-c3ccc(Oc4ccccc4)cc3)c3c(N)ncnc32)C1 | > 10 µM | > 10 µM | > 10 µM | > 10 µM | 0.0945 µM | > 10 µM | > 5.39 µM | > 10 µM | > 6.06 µM | > 10 µM | > 10 µM | > 10 µM | > 10 µM | > 10 µM | 0.0859 µM | > 10 µM | > 7.69 µM | > 10 µM | > 4.98 µM | > 10 µM
3 | CC#CC#C/C(=C/C=CC(=O)OC)SC |  | > 100 µM |  | > 100 µM |  | > 100 µM |  | > 100 µM |  | > 100 µM |  | > 100 µM |  | > 100 µM |  | > 100 µM |  | > 100 µM |  | > 100 µM
4 | Cn1c(=O)c(Oc2ccc(F)cc2F)cc2cnc(NCC(C)(C)O)nc21 | > 25 µM | > 25 µM | > 25 µM | > 25 µM | > 25 µM | > 25 µM | > 25 µM | > 25 µM | > 25 µM | > 25 µM | > 25 µM | > 25 µM | > 25 µM | > 25 µM | > 25 µM | > 25 µM | > 25 µM | > 25 µM | > 25 µM | > 25 µM
5 | Fc1ccc(Nc2nc3nonc3nc2Nc2ccc(I)cc2)cc1 | 0.213 µM | 0.617 µM | 0.283 µM | 64.5 µM | 0.228 µM | 0.892 µM | 0.349 µM | 1.44 µM | 0.319 µM | 1.94 µM | 0.208 µM | 0.55 µM | 0.181 µM | 10.7 µM | 0.192 µM | 0.693 µM | 0.266 µM | 2.02 µM | 0.367 µM | 17.9 µM
6 | CC1[C@@H]2CC=C3[C@H]4CCC5Cc6nc7c(nc6C[C@@]5(C)C4CC(=O)[C@]32CO[C@]12OC(C)(C)CC2O)CC1CC[C@@H]2C3=C[C@H]4O[C@@]5(O[C@@](C)(CO)C[C@@H]5O)C(C)[C@@]4(O)[C@]3(C)[C@@H](O)CC2[C@]1(C)C7 (stereo partly drawn) | 0.0011 µM and 0.00208 µM | 0.0242 µM and 0.0699 µM | 0.039 µM and 0.0985 µM | 0.921 µM and > 3.65 µM | 0.246 µM |  | 0.000361 µM and 0.000576 µM |  |  | 0.0901 µM and 0.103 µM | 0.00217 µM and 0.00857 µM | 0.00721 µM and 0.0301 µM | 0.000287 µM | 0.0274 µM | 0.0131 µM |  | 0.000751 µM | 0.363 µM | 0.0011 µM and 0.00472 µM | 0.253 µM and 0.441 µM
7 | COc1cc2c(cc1OCCCN1CCN(C(=S)SCCC(C#N)(c3ccccc3)c3ccccc3)CC1)N=C[C@@H]1CCCN1C2=O | 1.08 µM | 2.91 µM | 2.15 µM | > 43.7 µM | 1.58 µM |  | 0.721 µM | 2.03 µM | 1.51 µM | 3.15 µM | 1.3 µM | 2.78 µM | 1.45 µM | > 100 µM | 0.523 µM | 2.43 µM | 1.07 µM | 3.79 µM | 0.386 µM | 
8 | CN(C)CCCCNc1ccc(NCCCCN(C)C)c2c1C(=O)c1c(O)ccc(O)c1C2=O | 18 µM | 32.5 µM | 1.42 µM | 2.76 µM | 18.5 µM | 33.2 µM | 1.42 µM | 2.73 µM | 14.9 µM | 28.1 µM | 13.6 µM | 28.6 µM | 1.94 µM | 3.64 µM | 1.77 µM | 3.58 µM | 16 µM | 29.5 µM | 10.4 µM | 22.1 µM
9 | CCOc1ccc2c(c1)C(=O)c1c-2n(CCCN=[N+]=[N-])c(=O)c2cc([N+](=O)[O-])ccc12 | 14.4 µM | 38.2 µM | 18.9 µM | > 100 µM | 0.102 µM | 1.24 µM | 3.02 µM | > 100 µM | 2.24 µM | 9.92 µM | 54.1 µM | > 100 µM | 15.1 µM | > 100 µM | 3.58 µM | 25.8 µM | 13.1 µM | > 100 µM | 1.42 µM | 38.4 µM
10 | O=C(N/N=C/c1ccncc1)c1ccc(F)cc1 | > 40 µM | > 40 µM | > 40 µM | > 40 µM | > 40 µM | > 40 µM | > 40 µM | > 40 µM | > 40 µM | > 40 µM | > 40 µM | > 40 µM | > 40 µM | > 40 µM | > 40 µM | > 40 µM | > 40 µM | > 40 µM | > 40 µM | > 40 µM
11 | CC[C@@H](C)/C=C(C)/C=C/C(=O)c1c(O)c(-c2ccc(O)cc2)cn(OC2CC(=O)CCC(C)OC(=O)CC2O)c1=O (stereo partly drawn) | 0.489 µM | 15.6 µM | 0.233 µM | 26 µM | 0.383 µM | 15.3 µM | 0.171 µM | 2.7 µM | 0.285 µM | 3.05 µM | 5.97 µM | 21.2 µM | 5.62 µM | > 91.5 µM | 0.419 µM | 11.5 µM | 0.554 µM | 16.2 µM | 0.282 µM | 9.39 µM
12 | Nc1cc(N)c2nc(NCCc3ccc(Cl)c(Cl)c3)cnc2c1 | 8.23 µM | 21.4 µM | 1.81 µM | 3.26 µM | 2.83 µM | 8.65 µM | 12 µM | 31.1 µM | 21.4 µM | 47.6 µM | 5.6 µM | 24.3 µM | 9.32 µM | 21.3 µM | 12.6 µM | 33.7 µM | 20.1 µM | 34.8 µM | 4.7 µM | 17.6 µM
13 | Cc1[nH]nc(C(=O)N/N=C/c2ccccc2Cl)c1N=NN(C)C |  | > 100 µM |  | > 100 µM |  | > 100 µM |  | > 100 µM |  | > 100 µM |  | > 100 µM |  | > 100 µM |  | > 100 µM |  | 12.8 µM |  | > 100 µM
14 | COc1cc2c(cc1-c1coc3cc(O)ccc3c1=O)OCO2 |  | > 100 µM |  | 44.3 µM |  | 65.6 µM |  | > 100 µM |  | 40.2 µM |  | > 100 µM |  | > 100 µM |  | 36.2 µM |  | 41.2 µM |  | 43.6 µM
15 | CC(=O)N[C@@H](Cc1ccc(OP(=O)(O)O)cc1)C(=O)N[C@H]1CCC(=O)N2CCC[C@@H](C(=O)NC3CCc4ccccc43)N2C1=O (stereo partly drawn) | > 25 µM | > 25 µM | > 25 µM | > 25 µM | > 25 µM | > 25 µM | > 25 µM | > 25 µM | > 25 µM | > 25 µM | > 25 µM | > 25 µM | > 25 µM | > 25 µM | > 25 µM | > 25 µM | > 25 µM | > 25 µM | > 25 µM | > 25 µM
16 | CCCCOC(=O)c1c(C)[nH]c(/C=C2\N=C(c3ccc[nH]3)C=C2OC)c1C | 0.103 µM | 0.381 µM | 0.177 µM | 5.04 µM | 0.347 µM | 1.9 µM | 0.0296 µM | 0.102 µM | 0.31 µM | 1.72 µM | 0.274 µM | 1.67 µM | 0.136 µM | > 24.9 µM | 0.174 µM | 1.68 µM | 0.65 µM | 12.1 µM | 0.242 µM | 9.07 µM
17 | COc1ncc(-c2ccc3nccc(C#CCCCCC(=O)NO)c3c2)cc1NS(=O)(=O)c1ccc(F)cc1F | 0.106 µM | 1.77 µM | 1.72 µM | 14.1 µM |  | 0.055 µM | 0.0968 µM | 1.9 µM | 1.59 µM | 15.5 µM | 0.0897 µM | 2.18 µM | 0.0545 µM | 4.8 µM | 0.0929 µM | 2.31 µM | 0.0535 µM | 2.77 µM | 0.121 µM | 3.77 µM
18 | Nc1n[nH]c2ccc([C@@H]3Nc4ccc5cn[nH]c5c4[C@H]4C5CCC(C5)[C@@H]34)cc12 (stereo partly drawn) | 0.621 µM | > 100 µM | 2.63 µM | > 100 µM | 0.402 µM | > 100 µM | 0.567 µM | > 81.2 µM | 0.977 µM | 50 µM | 0.332 µM | 3.03 µM | 0.476 µM | > 100 µM | 0.385 µM | 54.6 µM | 0.755 µM | > 65.8 µM | 2.59 µM | > 100 µM
19 | CC(=O)Nc1cc2c3c(cccc3c1)-c1ccccc1-2 | 70 µM | > 100 µM | > 100 µM | > 100 µM | 37.3 µM | > 100 µM | 38.9 µM | > 100 µM | 37.8 µM | > 100 µM | > 100 µM | > 100 µM | 14.8 µM | > 100 µM | > 100 µM | > 100 µM | 64.6 µM | > 100 µM | 8.94 µM | > 100 µM
20 | O=C(Nc1cccc(-n2cc(-c3ccncc3)c(-c3ccc(Cl)c(O)c3)n2)c1)Nc1ccc(Cl)c(Cl)c1 | 1.03 µM | 2.64 µM | 1.69 µM | > 32.5 µM | 1.55 µM | 17.9 µM | 0.939 µM | 3.57 µM | 1.51 µM | > 32.5 µM | 3.96 µM | 9.49 µM | 0.834 µM | > 32.5 µM | 1.19 µM | 10.6 µM | 1.7 µM | 16.1 µM | 1.49 µM | 10.9 µM
21 | CC(=O)ON=C1C=CC(=C(C#N)c2ccccc2)C=C1 | 2.19 µM | 15.6 µM | 5.51 µM | 22 µM | 1.05 µM | 11.3 µM | 0.393 µM | 5.58 µM | 2.88 µM | 9.36 µM | 6.02 µM | 19.3 µM | 0.476 µM | 12.3 µM | 0.383 µM | 2.48 µM | 3.9 µM | 12.5 µM | 1.21 µM | 6.33 µM
